Measured values as given in publication PMC8819291, “Adaptively evolved human oral actinomyces‐sourced defensins show therapeutic potential” (EMBO Molecular Medicine, 2021).
Like-named read-outs stand apart in the source and are kept apart here. Where a SMILES comes first, the peptide text is derived from it. Bridges are numbered along the chain shown (N, C = ends).

Experiments:
[1] = Stability in H2O (residual activity by inhibition-zone assay); type: physicochemical; settings: 48‐h incubation in H2O at 37°C
salmon sperm DNA = settings: 1.0 nmol AMSIN + salmon sperm DNA 6.6 mg/ml
Method: The rationality behind this experiment is that if a reduction in the inhibition‐zone size in the presence of DNA, it would indicate that the peptide binding to the DNA causes the loss of antibacterial activity. […] Inhibition zones were recorded and compared with the control without the DNA.

[2] = system: Methicillin‐resistant coagulase negative Staphylococci P1369; test: Inhibition-zone assay (lethal concentration); type: cell-based, Staphylococcus; settings: Broth Medium, 37°C
Description: Bacterial media used here included: Luria‐Bertani (LB) medium, THY medium (30 g Todd Hewitt broth and 5 g Yeast extract per liter), and tryptic soy broth (TSB) (Oxoid, Basingstoke, UK); Broth medium and brain–heart infusion (BHI) medium (Beijing Landbridge technology Limited by Share Ltd., Beijing, China); Potato dextrose (PD) medium (self‐prepared).
In brief, an overnight bacterial culture from a single colony was inoculated into fresh medium and grew to late log‐phase. A 10‐μl aliquot of each culture was diluted in 6‐ml pre‐heated medium containing 0.8% agar. The mixture was spread on a 9‐cm Petri dish, giving a depth of 1 mm. After settling, 3‐mm wells were punched in the plate and then 2‐μl peptide samples of different concentrations were added to each well. The agar plates were incubated overnight at indicated temperatures (Table EV4). A lethal concentration (C L ) was calculated from a plot of d^2 against log n, where d is the diameter (in cm) and n is the amount of sample applied in the well (in nmol). The plot is linear, and thus C L can be calculated from the slope (k) and the intercept (m) of this plot.

SM membrane = test: Membrane permeability assay (propidium iodide); type: cell-based, Streptococcus mutans; settings: 10 × C L; 5 × 10^5 cells in PBS pH 7.3, 1 μM PI
Method: Fluorescence was measured with the F‐4500 FL spectrophotometer (Hitachi High‐Technology Company, Japan).

[3] = Bioaffinity ESI-MS with UMP; type: binding, Staphylococcus aureus; settings: 25 mM ammonium acetate (pH5.2)
Method: All components for interactions were dissolved in 25 mM ammonium acetate (pH5.2). Electrospray spectra were recorded with Waters SynaptG2‐Si mass spectrometer (Waters, Manchester, UK) and measurements were performed with positive ESI in resolution mode. Ions were scanned in a mass range of 500–2,000 m/z with the following conditions: the capillary voltage at 1,500 V; the cone voltage at 40 V; the source block temperature at 30°C. Spectra were recorded and processed by the software Masslynx4.1 (Waters, Manchester, UK).

[4] = system: BM cells (Bacillus megaterium); test: Scanning electron microscope observation of cell deformation; type: cell-based; settings: 10 × C L, 37°C, 90 min
Method: After centrifugation, bacterial pellets were fixed with 2.5% glutaraldehyde for 1 h, followed by washing three times with PBS buffer (pH 7.3). Dehydration was carried out with a series of graded ethanol solutions. Cells were then dried by BAL‐TEC CPD‐030 critical point dryer (Bal‐Tec AG, Balzers, Liechtenstein) before being mounted on carbon tape and sputtered with a gold coating (BAL‐TEC SCD005). Images were visualized in FEI QUANTA 450.

[5] = 10 μg i.p. once daily for 3 days, serum after 2 days, 1:100 diluted over AMSIN-immobilized CM5 chip
Method: Firstly, three female ICR mice (25 g each mouse, 6 weeks of age) were injected intraperitoneally (i.p.) with 10‐μg protein dissolved in 0.9% NaCl once daily (OD) for 3 days. One female ICR mouse of 25 g (6 weeks of age) injected with 0.9% NaCl in the same manner was used as control. Blood samples were then collected from the mouse retro‐orbital plexus after 2 days. Sera were obtained by centrifugation and stored at –20°C until further use. […] In this process, bovine serum albumin (BSA) was added at a final concentration of 0.25 mg/ml to inhibit non‐specific binding. The amount of bound material, if any, was determined by measuring the increase in RUs.

SP D39 = test: Mouse lung infection model
Method: To this end, ICR female mice (30 g each mouse; 9–10 weeks of age) were anesthetized with 1.25% 2,2,2‐Tribromoethanol (Avertin) (Macklin, Shanghai, China) and hung by their front teeth on a steel wire. Then, they were inoculated intranasally with 10–20 µl bacterial suspension of SP D39 of fresh overnight culture (1.5 × 10^6 CFU per mouse) and then were removed from the wire to their cages. A control group of untreated mice was included. […] Mice were treated with penicillin as a positive control. At 48 h post‐infection, the mice were sacrificed and lungs removed and homogenized in 0.9% saline. Colony counts from lung homogenates were determined and the total number of colonies/lungs per mouse was calculated. Schematic representation is provided in Appendix Fig S16B.

HL‐60 = test: Cytotoxicity assay (CCK-8); type: cell-based, human; settings: 72 h
Method: Cells were cultured at 37°C in 5% CO2: 95% air incubator in Minimum Essential Medium (MEM) supplemented with 10% (v/v) fetal bovine serum (FBS). Cells were seeded at a density of 7 × 10^3 cells per well in 96‐well plates and incubated for 24 h. Media were then replaced with 200 μl of media containing various concentrations of peptides. The cells were incubated for 72 h and cytotoxicity was assessed with CCK‐8 Kits (Dojindo Molecular Technologies, Tokyo, Japan). Absorbance was detected at 450 nm with the TECAN Infinite M200 microplate reader (Tecan, Durham, USA).

CC[C@H](C)[C@@H]1NC(=O)[C@H](CCCCN)NC(=O)CNC(=O)[C@H](CCCNC(=N)N)NC(=O)[C@@H]2CSSC[C@H](NC(=O)CNC(=O)[C@H](Cc3ccccc3)NC(=O)CN)C(=O)N3CCC[C@H]3C(=O)N[C@@H](Cc3c[nH]c4ccccc34)C(=O)N[C@@H](CC(N)=O)C(=O)N[C@@H](C)C(=O)N[C@@H](Cc3ccc(O)cc3)C(=O)N[C@@H](CCC(=O)O)C(=O)N[C@H]3CSSC[C@H](NC(=O)[C@H]([C@@H](C)O)NC(=O)[C@H](CCC(N)=O)NC(=O)[C@H](CCCNC(=N)N)NC1=O)C(=O)N[C@@H](Cc1c[nH]cn1)C(=O)N[C@H](C(=O)N[C@@H](Cc1ccc(O)cc1)C(=O)O)CSSC[C@H](NC(=O)[C@H](Cc1c[nH]cn1)NC(=O)[C@H](CCCNC(=N)N)NC(=O)[C@H](CC(=O)O)NC3=O)C(=O)N[C@@H](C(C)C)C(=O)N[C@@H](CO)C(=O)N[C@@H](CCCCN)C(=O)NCC(=O)N[C@@H](Cc1ccc(O)cc1)C(=O)N[C@@H]([C@@H](C)O)C(=O)NCC(=O)NCC(=O)N[C@@H](CC(N)=O)C(=O)N2 [AMSIN] (H-GFGCPWNAYECDRHCVSKGYTGGNCRGKIRQTCHCY-OH; disulfide 4-25, 11-33, 15-35; N-terminus and C-terminus assumed)
Residual antibacterial activity [1]: full antibacterial activity
Inhibition zone (salmon sperm DNA; replicate 1): 9.5 mm
Inhibition zone (salmon sperm DNA; replicate 2): 10 mm
Inhibition zone (salmon sperm DNA; replicate 3): 9.5 mm
Lethal concentration (C L) [2]: 1.07 µM
Effect on bacterial membrane integrity (propidium iodide fluorescence) (SM membrane): did not impair the integrity of bacterial membrane
Non-covalent complex with UMP by ESI-MS [3]: quadruply protonated complex
Cell shape by scanning electron microscopy [4]: deformation of the cell shape
Anti-drug antibody in AMSIN-treated mouse serum [5]: no obvious anti‐drug antibody
Log10 (CFU per lung) (SP D39; 8.35 mg/kg i.m. 24 h after intranasal SP D39, lungs at 48 h post‐infection, animal 1): 3.3 Log10 (CFU per lung)
Log10 (CFU per lung) (SP D39; 8.35 mg/kg i.m., animal 2): 3.48 Log10 (CFU per lung)
Log10 (CFU per lung) (SP D39; 8.35 mg/kg i.m., animal 3): 3.3 Log10 (CFU per lung)
Log10 (CFU per lung) (SP D39; 8.35 mg/kg i.m., animal 4): 3 Log10 (CFU per lung)
Log10 (CFU per lung) (SP D39; 8.35 mg/kg i.m., animal 5): 3.78 Log10 (CFU per lung)
Log10 (CFU per lung) (SP D39; 16.7 mg/kg i.m., animal 1): 3.89 Log10 (CFU per lung)
Log10 (CFU per lung) (SP D39; 16.7 mg/kg i.m., animal 2): 1.48 Log10 (CFU per lung)
Log10 (CFU per lung) (SP D39; 16.7 mg/kg i.m., animal 3): 1 Log10 (CFU per lung)
Log10 (CFU per lung) (SP D39; 16.7 mg/kg i.m., animal 4): 4.2 Log10 (CFU per lung)
Log10 (CFU per lung) (SP D39; 16.7 mg/kg i.m., animal 5): 1.6 Log10 (CFU per lung)
Log10 (CFU per lung) (SP D39; 33 mg/kg i.m., animal 1): 1 Log10 (CFU per lung)
Log10 (CFU per lung) (SP D39; 33 mg/kg i.m., animal 2): 1.3 Log10 (CFU per lung)
Log10 (CFU per lung) (SP D39; 33 mg/kg i.m., animal 3): 1 Log10 (CFU per lung)
Log10 (CFU per lung) (SP D39; 33 mg/kg i.m., animal 4): 1.3 Log10 (CFU per lung)
Log10 (CFU per lung) (SP D39; 33 mg/kg i.m., animal 5): 1.48 Log10 (CFU per lung)
Reduction of CFU in lungs (SP D39; different doses (8.35, 16.7, 33 mg per kg i.m.)): 4.6–6.7 log10
Toxicity of administration route in the model (SP D39; intramuscular injection (i.m.)): no obvious toxicity
Cellular variability of HL-60 (%) (HL‐60; 25 μg/mL, replicate 1): 97%
Cellular variability of HL-60 (%) (HL‐60; 25 μg/mL, replicate 2): 101%
Cellular variability of HL-60 (%) (HL‐60; 25 μg/mL, replicate 3): 108%
Cellular variability of HL-60 (%) (HL‐60; 50 μg/mL, replicate 1): 97%
Cellular variability of HL-60 (%) (HL‐60; 50 μg/mL, replicate 2): 100%
Cellular variability of HL-60 (%) (HL‐60; 50 μg/mL, replicate 3): 103%
Cellular variability of HL-60 (%) (HL‐60; 100 μg/mL, replicate 1): 97%
Cellular variability of HL-60 (%) (HL‐60; 100 μg/mL, replicate 2): 102%
Cellular variability of HL-60 (%) (HL‐60; 100 μg/mL, replicate 3): 106%
